Data on 28 compounds can be found in US4432973A, “Benzoyl- and α-hydroxybenzyl-phenyl-glycosides and application thereof in therapeutics” (Societe de Recherches Industrielles (S.O.R.I.), priority 1980, dated 1984).

Data set [1] in a line: Acute toxicity in the mouse by the I.P. route. It counts as in vivo. The settings on record: for LD50: read-out: DL-50 (lethal dose involving the death of half of the animals). An excerpt: The acute toxicity was studied in the mouse by the I.P. route. It is expressed in the form of DL-50 (lethal dose involving the death of half of the animals) or DL-0 (maximum non-lethal dose).

Data set [2] in a line: Veinous thrombosis: veinous anti-thrombus activity. The class given is in vivo. As to conditions: 100 mg/kg I.P., 4 to 5 hours after administration; for inhibition in vivo at 100 mg/kg: Rattus norvegicus, ip, read-out: Diminution of veinous thrombus. The protocol: The technique used is similar to the one described by Peterson-Zucker in Thrombo.Diath.Haemorh. 23, 1, (1970).
An occlusive thrombus is created in the […] vena cava of a rat by the combined action of an endothelial alteration and a veinous stasis for 15 mins. and 4 to 5 hours after administration of the product to be tested (100 mg/kg I.P.).

Data set [3] is described as follows: Anti-ulcer activity: ulcer caused by aspirin. The class given is in vivo, rat (male Wistar). As to conditions: aspirin 192 mg/kg per os, standardised to control batch and cimetidine (index 1). The protocol: The experiment is carried out on male Wistar rats of 180 to 200 g. The products to be tested are administered at 100 mg/kg I.P. (unless indicated to the contrary in Table IV).
At t=0, the rats are made to fast and a first administration of the product to be tested is made.
At t=18 hours, 2 ml of an ulcer-forming suspension with 192 mg of aspirin/kg are administered per os then a second administration of the product to be tested is made.
At t=22 hours, the animals are sacrificed and the ulcers are marked as follows: small point-like ulcers: mark 1 more extensive ulcers: mark 3 highly extensive or very deep ulcers: mark 9
This marking is standardised with respect to a control batch and to cimetidine (a reference product) to which index 1 has been allocated.

Data set [4] can be described thus: Anti-hypoxic activity: survival to hypoxia (nitrogen-oxygen 95:5). It counts as in vivo, mouse (Swiss male). The settings on record: I.P., 1/10th of LD-50 or 100 mg/kg when LD-0 ≥ 800 mg/kg; up to 15 minutes; mouse. The protocol:
The experiment is carried out on batches of 20 Swiss male mice weighing from 20 to 30 g. Each product to be tested is administered to the mice by intraperitoneal route at a dose corresponding to 1/10th of the LD-50 or at a dose of 100 mg/kg when the LD-0 is higher than or equal to 800 mg/kg. The mice are placed in a nitrogen-oxygen (95:5) v/v atmosphere. The survival time of the mice is then measured up to 15 minutes maximum.
The results shown in Table VII are expressed in percentage of survival with respect to a non-treated control batch and a batch treated with an anti-hypoxic reference product [specialty known under the trade name of "Duxil" and which is constituted by a mixture of Almitrine bis-methanesulfonate and of Raubasine in the weight ratio 3:1], the anti-hypoxic reference product being administered at the dose of 18 mg/kg I.P.

Regarding `Nc1ccccc1C(=O)c1ccc(O[C@@H]2OC[C@@H](O)[C@H](O)[C@H]2O)cc1` [Example 7], the “DL-0 (maximum non-lethal dose)” value in data set [1] (I.P.) is given as > 800 mg/kg IP. For the same compound, in data set [2], the inhibition in vivo at 100 mg/kg is ≥ 50%.
On to `O=[N+]([O-])c1ccc(C(O)c2ccc(O[C@@H]3OC[C@@H](O)[C@H](O)[C@H]3O)cc2)cc1` (single isomer, unassigned) [Example 98, [4-(4-nitro-α-hydroxybenzyl)-phenyl]-β-D-xylopyranoside], for which, in data set [2], the inhibition in vivo at 100 mg/kg is ≥ 50%.
Regarding `COc1ccc(C(=O)c2ccc(O[C@@H]3OC[C@@H](OC(C)=O)[C@H](OC(C)=O)[C@H]3OC(C)=O)cc2)cc1` [Example 81], the “DL-0 (maximum non-lethal dose)” value in data set [1] (I.P.) is reported as > 800 mg/kg IP. Also, in data set [2], the inhibition in vivo at 100 mg/kg fell in the range of 30 to 49%. In addition, the Ulcer index in data set [3] (100 mg/kg I.P.) amounted to 0.64.
In the case of `O=[N+]([O-])c1ccc(C(O)c2ccc(O[C@@H]3OC[C@@H](O)[C@H](O)[C@H]3O)cc2)cc1` (single isomer, unassigned) [Example 99, [4-(4-nitro-α-hydroxybenzyl)-phenyl]-β-D-xylopyranoside], in data set [2] (rat), the “Diminution of veinous thrombus” value is recorded as “+ (inhibition of 30 to 49%)”.
Take `O=C(c1ccccc1)c1ccc(O[C@@H]2OC[C@@H](O)[C@H](O)[C@H]2O)cc1` [Example 18]: the LD50 in data set [1] (in vivo, ip, I.P.) is > 1000 mg/kg. Moreover, the inhibition in vivo at 100 mg/kg in data set [2] was in the range of 30 to 49%.
On to `CC(=O)N[C@H]1[C@H](Oc2ccc(C(=O)c3ccc([N+](=O)[O-])cc3)cc2)O[C@H](COC(C)=O)[C@@H](OC(C)=O)[C@@H]1OC(C)=O` [Example 109], for which the “DL-0 (maximum non-lethal dose)” value in data set [1] (in vivo, ip) is > 800 mg/kg IP. Moreover, the “Survival (survival percentage to hypoxic aggression)” value in data set [4] is “++ (from 50 to 79%)”. Also, the Ulcer index in data set [3] (100 mg/kg I.P.) was 0.65.
For the compound `O=C(c1ccc(O[C@@H]2OC[C@@H](O)[C@H](O)[C@H]2O)cc1)c1ccccc1Cl` [Example 5], the “DL-0 (maximum non-lethal dose)” value in data set [1] (I.P.) was > 800 mg/kg IP. Moreover, the inhibition in vivo at 100 mg/kg in data set [2] is ≥ 50%.
Take `CC(=O)N[C@H]1[C@H](Oc2ccc(C(=O)c3ccc(Cl)cc3)cc2)O[C@H](CO)[C@@H](O)[C@@H]1O` [Example 43]: the “DL-0 (maximum non-lethal dose)” value in data set [1] (in vivo, ip) is > 800 mg/kg IP. Also, the “Survival (survival percentage to hypoxic aggression)” value in data set [4] is recorded as “+++ (higher than or equal to 80%)”. The compound further registered a Ulcer index in data set [3] (100 mg/kg I.P.) of 0.52.
In the same order, the values of `O=C(c1ccc(O[C@@H]2O[C@H](CO)[C@@H](O)[C@H](O)[C@H]2O)cc1)c1ccc([N+](=O)[O-])cc1` [Example 19] are > 800 mg/kg IP, “++ (from 50 to 79%)” and 0.74.
As for `OC(c1ccc(O[C@@H]2OC[C@@H](O)[C@H](O)[C@H]2O)cc1)c1ccccc1Cl` (some centres unmarked) [Example 88], the “DL-0 (maximum non-lethal dose)” value in data set [1] (I.P.) was > 800 mg/kg IP. Moreover, the inhibition in vivo at 100 mg/kg in data set [2] was ≥ 50%. Besides, in data set [3] (100 mg/kg I.P.), the Ulcer index is listed as 0.39.
Take `O=[N+]([O-])c1cccc(C(O)c2ccc(O[C@@H]3OC[C@@H](O)[C@H](O)[C@H]3O)cc2)c1` (some centres unmarked) [Example 87]: the LD50 in data set [1] (in vivo, ip, I.P.) is > 600 mg/kg. Besides, in data set [2], the inhibition in vivo at 100 mg/kg was ≥ 50%. Also, in data set [3] (100 mg/kg I.P.), the Ulcer index is given as 0.35.
`CC(=O)N[C@H]1[C@H](Oc2ccc(C(=O)c3ccccc3C)cc2)O[C@H](CO)[C@@H](O)[C@@H]1O` [Example 121]: the “DL-0 (maximum non-lethal dose)” value in data set [1] (in vivo, ip) was > 800 mg/kg IP. The “Survival (survival percentage to hypoxic aggression)” value in data set [4] is “+ (from 30 to 49%)”. The compound further returned a Ulcer index in data set [3] (100 mg/kg I.P.) of 0.39.
For `CC(=O)N[C@H]1[C@H](Oc2ccc(C(=O)c3ccc(C)cc3)cc2)O[C@H](COC(C)=O)[C@@H](OC(C)=O)[C@@H]1OC(C)=O` [Example 112], in that order: > 800 mg/kg IP, “++ (from 50 to 79%)” and 0.68.
For the compound `O=C(c1ccc(O[C@@H]2OC[C@@H](O)[C@H](O)[C@H]2O)cc1)c1ccc(C(F)(F)F)cc1` [Example 11], in data set [1] (in vivo, ip), the “DL-0 (maximum non-lethal dose)” value was > 800 mg/kg IP. Further, the “Survival (survival percentage to hypoxic aggression)” value in data set [4] is given as “++ (from 50 to 79%)”. The same compound came in with a Ulcer index in data set [3] (200 mg/kg P.O.) of 0.
With `O=C(c1ccccc1)c1cccc(O[C@@H]2OC[C@@H](O)[C@H](O)[C@H]2O)c1` [Example 45], the “DL-0 (maximum non-lethal dose)” value in data set [1] (I.P.) is given as > 800 mg/kg IP. The inhibition in vivo at 100 mg/kg in data set [2] lay within 30 to 49%. In data set [3] (100 mg/kg I.P.), this compound came in with a Ulcer index of 1.11.
In the same order, the values of `CC(=O)O[C@@H]1[C@@H](OC(C)=O)[C@H](Oc2ccc(C(=O)c3ccc(Br)cc3)cc2)OC[C@H]1OC(C)=O` [Example 75] are > 800 mg/kg IP, 30 to 49% and 0.32.
Take `CC(=O)N[C@H]1[C@H](Oc2c(C)cc(C(=O)c3ccccc3C)cc2C)O[C@H](CO)[C@@H](O)[C@@H]1O` [Example 26]: the LD50 in data set [1] (in vivo, ip, I.P.) was 700 mg/kg. In data set [4], the “Survival (survival percentage to hypoxic aggression)” value was “+ (from 30 to 49%)”. For the same compound, the Ulcer index in data set [3] (100 mg/kg I.P.) is 0.60.
For the compound `CC(=O)OC[C@H]1O[C@@H](Oc2ccc(C(=O)c3ccc([N+](=O)[O-])cc3)cc2)[C@H](OC(C)=O)[C@@H](OC(C)=O)[C@@H]1OC(C)=O` [Example 110], the “DL-0 (maximum non-lethal dose)” value in data set [1] (in vivo, ip) was > 800 mg/kg IP. Also, in data set [4], the “Survival (survival percentage to hypoxic aggression)” value was “++ (from 50 to 79%)”. This compound showed a Ulcer index in data set [3] (100 mg/kg I.P.) of 0.71.
In the case of `CC(=O)O[C@@H]1[C@@H](OC(C)=O)[C@H](Oc2ccc(C(=O)c3ccc(N)cc3)cc2)OC[C@H]1OC(C)=O` [Example 77], in data set [1] (I.P.), the “DL-0 (maximum non-lethal dose)” value is on record as > 800 mg/kg IP. Also, the inhibition in vivo at 100 mg/kg in data set [2] was 30 to 49%.
For `CC(=O)O[C@@H]1[C@@H](OC(C)=O)[C@H](Oc2ccc(C(=O)c3ccc([N+](=O)[O-])cc3)cc2)OC[C@H]1OC(C)=O` [Example 41, [4-(4-nitrobenzoyl)-phenyl]-2,3,4-tri-(O-acetyl)-β-D-xylopyranoside], the “DL-0 (maximum non-lethal dose)” value in data set [1] (in vivo, ip) is on record as > 800 mg/kg IP. In data set [4], the “Survival (survival percentage to hypoxic aggression)” value was “+++ (higher than or equal to 80%)”. For the same compound, in data set [3] (100 mg/kg I.P.), the Ulcer index is 0.40.
In the case of `CC(=O)O[C@@H]1[C@@H](OC(C)=O)[C@H](Oc2ccc(C(=O)c3ccc(N(C)C)cc3)cc2)OC[C@H]1OC(C)=O` [Example 116], the “DL-0 (maximum non-lethal dose)” value in data set [1] (in vivo, ip) was > 800 mg/kg IP. Moreover, the “Survival (survival percentage to hypoxic aggression)” value in data set [4] was “+ (from 30 to 49%)”. In addition, the Ulcer index in data set [3] (100 mg/kg I.P.) is reported as 0.44.
In the same order, the values of `CC(=O)O[C@@H]1[C@@H](OC(C)=O)[C@H](Oc2ccc(C(=O)c3ccccc3C)cc2C)OC[C@H]1OC(C)=O` [Example 103] are > 800 mg/kg IP, “++ (from 50 to 79%)” and 0.65.
Regarding `OC(c1ccccc1)c1ccc(O[C@@H]2OC[C@@H](O)[C@H](O)[C@H]2O)cc1` (some centres unmarked) [Example 92], the LD50 in data set [1] (in vivo, ip, I.P.) was 1400 mg/kg. Also, in data set [2], the inhibition in vivo at 100 mg/kg is 30 to 49%.
Take `Cc1cc(C(=O)c2ccc([N+](=O)[O-])cc2)ccc1O[C@@H]1OC[C@@H](O)[C@H](O)[C@H]1O` [Example 29]: the “DL-0 (maximum non-lethal dose)” value in data set [1] (I.P.) is listed as > 800 mg/kg IP. Further, the inhibition in vivo at 100 mg/kg in data set [2] was 30 to 49%.
With `CC(=O)N[C@H]1[C@H](Oc2ccc(C(=O)c3ccccc3C)cc2C)O[C@H](CO)[C@@H](O)[C@@H]1O` [Example 122], in data set [1] (in vivo, ip), the “DL-0 (maximum non-lethal dose)” value is reported as > 800 mg/kg IP. In data set [4], the “Survival (survival percentage to hypoxic aggression)” value was “+ (from 30 to 49%)”. Moreover, the Ulcer index in data set [3] (100 mg/kg I.P.) was 0.91.
`CC(=O)N[C@H]1[C@H](Oc2ccc(C(=O)c3ccc(C)cc3)cc2)O[C@H](CO)[C@@H](O)[C@@H]1O` [Example 111]: in data set [1] (in vivo, ip, I.P.), the LD50 amounted to 750 mg/kg. In addition, the “Survival (survival percentage to hypoxic aggression)” value in data set [4] was “++ (from 50 to 79%)”. In addition, the Ulcer index in data set [3] (100 mg/kg I.P.) is listed as 0.42.
In the same order, the values of `OC(c1ccccc1)c1cccc(O[C@@H]2OC[C@@H](O)[C@H](O)[C@H]2O)c1` (some centres unmarked) [Example 117] are 1000 mg/kg, “++ (from 50 to 79%)” and 0.59.
`O=C(c1ccc(O[C@@H]2OC[C@@H](O)[C@H](O)[C@H]2O)cc1)c1cccc(C(F)(F)F)c1` [Example 13]: in data set [1] (in vivo, ip, I.P.), the LD50 worked out at 170 mg/kg. Besides, in data set [4], the “Survival (survival percentage to hypoxic aggression)” value is recorded as “++ (from 50 to 79%)”. In data set [3] (100 mg/kg I.P.), this compound displayed a Ulcer index of 0.46.
